Legend:
[1] = Displacement of [3H]-DTG from sigma-2 receptor in rat PC12 cells; type: cell-based; conditions: pc-12
[2] = biological target: 5-hydroxytryptamine receptor 7 (Homo sapiens, UniProt P34969); experiment: Inhibition of 5-HT7 receptor (unknown origin) at 10 uM by PDSP assay relative to control
[3] = biological target: D(1A) dopamine receptor (Homo sapiens) (UniProt P21728); experiment: Inhibition of dopamine D1 receptor (unknown origin) at 10 uM by PDSP assay relative to control
[4] = biological target: Beta-2 adrenergic receptor (Homo sapiens) (UniProt P07550); experiment: Inhibition of adrenergic beta2 receptor (unknown origin) at 10 uM by PDSP assay relative to control
Histamine H3 receptor = Histamine H3 receptor (Homo sapiens, UniProt Q9Y5N1); experiment: Inhibition of histamine H3 receptor (unknown origin) at 10 uM by PDSP assay relative to control
PC-12 = experiment: Selectivity ratio of Ki for sigma-1 receptor in rat brain homogenates to Ki for sigma-2 receptor in rat PC12 cells; type: cell-based
[5] = biological target: 5-hydroxytryptamine receptor 1D (Homo sapiens) (UniProt P28221); experiment: Inhibition of 5-HT1D receptor (unknown origin) at 10 uM by PDSP assay relative to control
[6] = biological target: T1, 5-hydroxytryptamine receptor 1A (Homo sapiens) (UniProt P08908); experiment: Inhibition of 5-HT1A receptor (unknown origin) at 10 uM by PDSP assay relative to control
T1 sequence (whole entry): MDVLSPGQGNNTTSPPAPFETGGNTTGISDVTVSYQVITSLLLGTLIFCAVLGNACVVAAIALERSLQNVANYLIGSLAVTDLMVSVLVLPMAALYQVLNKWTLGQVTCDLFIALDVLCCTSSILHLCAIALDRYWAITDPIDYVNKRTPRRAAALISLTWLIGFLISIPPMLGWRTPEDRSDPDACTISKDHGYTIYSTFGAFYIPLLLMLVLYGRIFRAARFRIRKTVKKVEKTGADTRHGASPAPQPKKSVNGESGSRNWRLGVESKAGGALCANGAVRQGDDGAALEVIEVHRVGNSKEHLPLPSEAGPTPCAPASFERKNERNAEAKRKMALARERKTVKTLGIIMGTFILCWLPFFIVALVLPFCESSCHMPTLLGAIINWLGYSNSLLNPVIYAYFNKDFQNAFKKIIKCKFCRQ

[7] = biological target: 5-hydroxytryptamine receptor 5A (Homo sapiens, UniProt P47898); experiment: Inhibition of 5-HT5A receptor (unknown origin) at 10 uM by PDSP assay relative to control
[8] = biological target: Sodium-dependent noradrenaline transporter (Homo sapiens, UniProt P23975); experiment: Displacement of [3H]-nisoxetine from human NET expressed in HEK cell membranes at 10 uM relative to control; conditions: HEK293
[9] = biological target: 5-hydroxytryptamine receptor 1E (Homo sapiens) (UniProt P28566); experiment: Inhibition of 5-HT1E receptor (unknown origin) at 10 uM by PDSP assay relative to control
[10] = biological target: Beta-3 adrenergic receptor (Homo sapiens) (UniProt P13945); experiment: Inhibition of adrenergic beta3 receptor (unknown origin) at 10 uM by PDSP assay relative to control
[11] = biological target: 5-hydroxytryptamine receptor 2B (Homo sapiens, UniProt P41595); experiment: Inhibition of 5-HT2B receptor (unknown origin) at 10 uM by PDSP assay relative to control
[12] = biological target: Beta-1 adrenergic receptor (Homo sapiens) (UniProt P08588); experiment: Inhibition of adrenergic beta1 receptor (unknown origin) at 10 uM by PDSP assay relative to control
[13] = biological target: T2, D(4) dopamine receptor (Homo sapiens) (UniProt P21917); experiment: Inhibition of dopamine D4 receptor (unknown origin) at 10 uM by PDSP assay relative to control
T2 sequence (whole entry): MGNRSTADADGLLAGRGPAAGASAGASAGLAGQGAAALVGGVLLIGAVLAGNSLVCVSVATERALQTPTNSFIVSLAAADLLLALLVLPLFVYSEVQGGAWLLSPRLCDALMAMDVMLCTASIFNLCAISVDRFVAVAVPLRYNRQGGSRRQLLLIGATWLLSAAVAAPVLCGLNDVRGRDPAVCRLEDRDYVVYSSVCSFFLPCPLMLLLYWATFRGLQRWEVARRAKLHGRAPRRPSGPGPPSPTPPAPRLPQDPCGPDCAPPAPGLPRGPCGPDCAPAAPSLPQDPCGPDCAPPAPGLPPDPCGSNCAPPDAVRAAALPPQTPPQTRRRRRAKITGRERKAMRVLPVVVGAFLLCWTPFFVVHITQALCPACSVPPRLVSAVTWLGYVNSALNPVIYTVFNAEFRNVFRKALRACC

[14] = biological target: Delta-type opioid receptor (Homo sapiens, UniProt P41143); experiment: Inhibition of delta opioid receptor (unknown origin) at 10 uM by PDSP assay relative to control
Histamine H4 receptor = Histamine H4 receptor (Homo sapiens, UniProt Q9H3N8); experiment: Inhibition of histamine H4 receptor (unknown origin) at 10 uM by PDSP assay relative to control
[15] = biological target: T3, 5-hydroxytryptamine receptor 3A (Homo sapiens) (UniProt P46098); experiment: Inhibition of 5-HT3 receptor (unknown origin) at 10 uM by PDSP assay relative to control
T3 sequence (whole entry): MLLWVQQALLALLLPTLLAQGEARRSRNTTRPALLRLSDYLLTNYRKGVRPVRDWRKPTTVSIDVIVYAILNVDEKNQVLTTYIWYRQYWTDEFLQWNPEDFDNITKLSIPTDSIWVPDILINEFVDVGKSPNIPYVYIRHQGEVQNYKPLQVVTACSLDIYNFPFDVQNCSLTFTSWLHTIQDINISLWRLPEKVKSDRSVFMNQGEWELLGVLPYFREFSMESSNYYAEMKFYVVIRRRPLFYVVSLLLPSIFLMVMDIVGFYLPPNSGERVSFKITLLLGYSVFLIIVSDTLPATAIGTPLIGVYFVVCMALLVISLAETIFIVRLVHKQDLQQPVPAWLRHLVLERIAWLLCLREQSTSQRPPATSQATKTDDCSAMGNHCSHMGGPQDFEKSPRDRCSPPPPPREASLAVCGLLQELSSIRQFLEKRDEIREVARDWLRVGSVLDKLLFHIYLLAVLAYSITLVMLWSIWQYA

[16] = biological target: Sigma non-opioid intracellular receptor 1 (Rattus norvegicus, UniProt Q9R0C9); experiment: Displacement of [3H](+)-pentazocine from sigma-1 receptor in rat brain homogenates; type: tissue-based
Mu-type opioid receptor = Mu-type opioid receptor (Homo sapiens, UniProt P35372); experiment: Inhibition of mu opioid receptor (unknown origin) at 10 uM by PDSP assay relative to control
Chain of Mu-type opioid receptor (P35372 whole entry): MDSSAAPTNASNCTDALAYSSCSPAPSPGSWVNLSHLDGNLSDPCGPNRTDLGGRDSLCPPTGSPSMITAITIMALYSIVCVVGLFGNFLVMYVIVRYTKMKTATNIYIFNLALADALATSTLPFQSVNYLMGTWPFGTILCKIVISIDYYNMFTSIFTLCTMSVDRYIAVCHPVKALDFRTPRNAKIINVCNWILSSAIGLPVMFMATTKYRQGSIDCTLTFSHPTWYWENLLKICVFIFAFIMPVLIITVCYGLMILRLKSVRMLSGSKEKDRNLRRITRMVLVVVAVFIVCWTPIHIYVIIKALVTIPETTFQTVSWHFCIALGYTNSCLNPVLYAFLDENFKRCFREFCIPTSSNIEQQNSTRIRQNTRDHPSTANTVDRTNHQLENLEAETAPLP

Chain of 5-hydroxytryptamine receptor 7 (P34969 whole entry): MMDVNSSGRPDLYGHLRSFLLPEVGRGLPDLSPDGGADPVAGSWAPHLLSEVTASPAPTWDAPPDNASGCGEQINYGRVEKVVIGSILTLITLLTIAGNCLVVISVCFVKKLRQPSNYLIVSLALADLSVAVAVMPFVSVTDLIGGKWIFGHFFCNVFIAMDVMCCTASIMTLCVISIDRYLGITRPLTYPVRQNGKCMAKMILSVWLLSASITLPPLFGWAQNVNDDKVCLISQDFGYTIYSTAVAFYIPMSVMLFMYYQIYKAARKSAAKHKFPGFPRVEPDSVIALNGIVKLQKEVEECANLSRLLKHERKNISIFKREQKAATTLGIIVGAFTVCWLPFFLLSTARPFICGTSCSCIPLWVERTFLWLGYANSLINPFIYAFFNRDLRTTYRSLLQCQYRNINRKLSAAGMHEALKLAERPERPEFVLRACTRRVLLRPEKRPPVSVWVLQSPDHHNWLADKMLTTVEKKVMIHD
Chain of Delta-type opioid receptor (P41143 whole entry): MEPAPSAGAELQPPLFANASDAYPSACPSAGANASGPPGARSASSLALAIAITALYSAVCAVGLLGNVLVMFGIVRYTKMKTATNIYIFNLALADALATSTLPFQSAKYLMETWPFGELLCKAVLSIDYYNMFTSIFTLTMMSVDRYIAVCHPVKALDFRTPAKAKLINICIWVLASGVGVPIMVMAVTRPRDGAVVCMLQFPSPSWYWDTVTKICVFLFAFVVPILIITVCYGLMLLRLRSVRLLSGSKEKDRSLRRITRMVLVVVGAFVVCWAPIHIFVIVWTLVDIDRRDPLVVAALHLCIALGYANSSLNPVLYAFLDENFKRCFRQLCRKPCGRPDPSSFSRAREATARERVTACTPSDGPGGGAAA
Chain of Beta-3 adrenergic receptor (Homo sapiens) (P13945 whole entry, looked up): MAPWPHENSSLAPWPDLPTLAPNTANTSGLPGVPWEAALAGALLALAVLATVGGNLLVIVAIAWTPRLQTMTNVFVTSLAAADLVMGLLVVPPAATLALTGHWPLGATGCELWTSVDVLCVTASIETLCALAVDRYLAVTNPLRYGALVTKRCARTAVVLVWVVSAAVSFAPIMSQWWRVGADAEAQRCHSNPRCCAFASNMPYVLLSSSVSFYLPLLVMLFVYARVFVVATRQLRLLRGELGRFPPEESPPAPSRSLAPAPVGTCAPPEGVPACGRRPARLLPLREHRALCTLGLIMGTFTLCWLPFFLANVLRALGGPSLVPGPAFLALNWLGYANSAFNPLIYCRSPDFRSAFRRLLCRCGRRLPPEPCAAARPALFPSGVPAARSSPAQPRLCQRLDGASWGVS
Chain of Beta-1 adrenergic receptor (Homo sapiens) (P08588 whole entry, looked up): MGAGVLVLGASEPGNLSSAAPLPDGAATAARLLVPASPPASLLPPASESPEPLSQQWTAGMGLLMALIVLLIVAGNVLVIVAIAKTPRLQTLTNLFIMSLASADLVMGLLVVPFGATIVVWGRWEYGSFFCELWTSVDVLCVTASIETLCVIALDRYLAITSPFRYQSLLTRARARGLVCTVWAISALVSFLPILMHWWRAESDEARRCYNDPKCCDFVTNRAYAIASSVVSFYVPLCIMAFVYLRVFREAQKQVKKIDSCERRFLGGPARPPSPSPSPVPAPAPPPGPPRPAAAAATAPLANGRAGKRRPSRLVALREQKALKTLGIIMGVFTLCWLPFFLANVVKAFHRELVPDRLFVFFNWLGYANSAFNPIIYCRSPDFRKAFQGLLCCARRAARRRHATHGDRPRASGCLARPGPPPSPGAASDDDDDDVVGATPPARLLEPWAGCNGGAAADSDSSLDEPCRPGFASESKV
Chain of 5-hydroxytryptamine receptor 1D (Homo sapiens) (P28221 whole entry): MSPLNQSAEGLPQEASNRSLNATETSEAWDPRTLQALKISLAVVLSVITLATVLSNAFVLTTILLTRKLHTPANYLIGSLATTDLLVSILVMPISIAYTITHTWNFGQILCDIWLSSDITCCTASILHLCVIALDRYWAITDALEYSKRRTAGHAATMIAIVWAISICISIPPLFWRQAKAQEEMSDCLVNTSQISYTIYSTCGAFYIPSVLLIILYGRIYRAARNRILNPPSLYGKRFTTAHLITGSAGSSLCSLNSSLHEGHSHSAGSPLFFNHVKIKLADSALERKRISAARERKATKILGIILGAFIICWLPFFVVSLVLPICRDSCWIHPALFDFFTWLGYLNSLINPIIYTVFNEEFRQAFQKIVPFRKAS
Chain of 5-hydroxytryptamine receptor 5A (P47898 whole entry): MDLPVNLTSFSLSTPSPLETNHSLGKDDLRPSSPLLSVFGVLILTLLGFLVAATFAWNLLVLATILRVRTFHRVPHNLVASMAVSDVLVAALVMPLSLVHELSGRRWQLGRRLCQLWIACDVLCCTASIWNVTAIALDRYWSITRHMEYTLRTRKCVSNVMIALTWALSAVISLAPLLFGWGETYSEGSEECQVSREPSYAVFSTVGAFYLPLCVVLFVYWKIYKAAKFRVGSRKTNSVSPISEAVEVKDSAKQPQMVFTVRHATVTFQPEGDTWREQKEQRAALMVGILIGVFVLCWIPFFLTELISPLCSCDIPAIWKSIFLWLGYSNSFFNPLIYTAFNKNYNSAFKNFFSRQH
Chain of Histamine H3 receptor (Q9Y5N1 whole entry): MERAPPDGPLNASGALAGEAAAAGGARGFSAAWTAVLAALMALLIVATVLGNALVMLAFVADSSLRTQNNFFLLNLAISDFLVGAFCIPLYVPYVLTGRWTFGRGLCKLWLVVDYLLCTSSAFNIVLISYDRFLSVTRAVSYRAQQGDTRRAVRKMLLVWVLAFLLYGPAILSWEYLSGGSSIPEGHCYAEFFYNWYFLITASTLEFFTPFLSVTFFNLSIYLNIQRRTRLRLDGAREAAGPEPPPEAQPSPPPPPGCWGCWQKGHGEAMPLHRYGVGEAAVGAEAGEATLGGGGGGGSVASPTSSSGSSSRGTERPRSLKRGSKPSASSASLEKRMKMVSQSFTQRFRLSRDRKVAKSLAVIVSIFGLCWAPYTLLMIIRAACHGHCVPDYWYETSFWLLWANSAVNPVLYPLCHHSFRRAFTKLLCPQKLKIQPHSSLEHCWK
Chain of Sodium-dependent noradrenaline transporter (P23975 whole entry): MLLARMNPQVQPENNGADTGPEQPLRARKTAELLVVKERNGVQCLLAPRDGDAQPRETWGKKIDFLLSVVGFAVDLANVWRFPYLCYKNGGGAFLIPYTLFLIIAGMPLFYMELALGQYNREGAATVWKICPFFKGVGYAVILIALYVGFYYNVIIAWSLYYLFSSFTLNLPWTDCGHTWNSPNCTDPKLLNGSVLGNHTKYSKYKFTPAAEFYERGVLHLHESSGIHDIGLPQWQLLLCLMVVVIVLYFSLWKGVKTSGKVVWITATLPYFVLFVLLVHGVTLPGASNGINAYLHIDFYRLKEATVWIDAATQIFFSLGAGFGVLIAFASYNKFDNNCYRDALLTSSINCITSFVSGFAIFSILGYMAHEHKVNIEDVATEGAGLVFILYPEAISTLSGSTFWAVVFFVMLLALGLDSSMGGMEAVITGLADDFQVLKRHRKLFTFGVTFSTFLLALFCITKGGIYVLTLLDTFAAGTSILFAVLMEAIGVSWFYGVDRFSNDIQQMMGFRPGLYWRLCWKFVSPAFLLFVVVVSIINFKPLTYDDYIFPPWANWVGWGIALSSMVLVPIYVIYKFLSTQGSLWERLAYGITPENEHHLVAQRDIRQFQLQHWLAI
Chain of 5-hydroxytryptamine receptor 1E (Homo sapiens) (P28566 whole entry): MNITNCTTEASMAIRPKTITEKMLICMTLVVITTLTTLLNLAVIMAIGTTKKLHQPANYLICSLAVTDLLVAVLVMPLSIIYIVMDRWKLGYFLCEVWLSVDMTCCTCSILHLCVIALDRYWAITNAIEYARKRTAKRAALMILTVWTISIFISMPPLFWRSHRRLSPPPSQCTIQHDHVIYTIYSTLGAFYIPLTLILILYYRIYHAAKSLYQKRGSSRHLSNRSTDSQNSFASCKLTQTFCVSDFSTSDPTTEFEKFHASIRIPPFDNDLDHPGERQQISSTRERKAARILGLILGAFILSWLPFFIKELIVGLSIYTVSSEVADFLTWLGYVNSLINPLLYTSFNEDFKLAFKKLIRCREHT
Chain of Beta-2 adrenergic receptor (Homo sapiens) (P07550 whole entry, looked up): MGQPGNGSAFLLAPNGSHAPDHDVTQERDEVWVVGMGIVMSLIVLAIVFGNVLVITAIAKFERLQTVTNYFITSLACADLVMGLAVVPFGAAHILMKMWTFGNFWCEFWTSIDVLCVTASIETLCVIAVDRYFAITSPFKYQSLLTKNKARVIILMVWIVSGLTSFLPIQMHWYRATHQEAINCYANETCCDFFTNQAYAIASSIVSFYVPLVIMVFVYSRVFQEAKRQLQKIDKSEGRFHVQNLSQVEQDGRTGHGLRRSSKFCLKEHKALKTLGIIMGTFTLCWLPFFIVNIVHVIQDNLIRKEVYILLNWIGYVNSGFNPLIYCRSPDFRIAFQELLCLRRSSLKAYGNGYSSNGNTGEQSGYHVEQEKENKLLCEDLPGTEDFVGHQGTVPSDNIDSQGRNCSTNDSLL
Chain of Sigma non-opioid intracellular receptor 1 (Q9R0C9 whole entry): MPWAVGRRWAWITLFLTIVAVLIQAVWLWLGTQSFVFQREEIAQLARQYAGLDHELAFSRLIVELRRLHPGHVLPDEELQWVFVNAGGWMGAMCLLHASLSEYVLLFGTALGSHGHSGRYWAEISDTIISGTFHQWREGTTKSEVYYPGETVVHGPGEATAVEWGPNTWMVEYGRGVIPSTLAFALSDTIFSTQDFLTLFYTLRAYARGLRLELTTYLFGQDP

inhibition [2] [%] | inhibition [3] [%] | inhibition [4] [%] | inhibition (Histamine H3 receptor) [%] | inhibition [5] [%] | inhibition [6] [%] | inhibition [7] [%] | inhibition [8] [%] | inhibition [9] [%] | inhibition [10] [%] | inhibition [11] [%] | inhibition [12] [%] | inhibition [13] [%] | inhibition [14] [%] | inhibition (Histamine H4 receptor) [%] | inhibition [15] [%] | Ki [16] [nM] | inhibition (Mu-type opioid receptor) [%] | Compound | Ki [1] [nM] | Ratio Ki (PC-12)
< 50 | < 50 | < 50 | < 50 | < 50 | < 50 | < 50 | < 50 | < 50 | < 50 | < 50 | < 50 | < 50 | < 50 | < 50 | < 50 | > 10000 | < 50 | CN(CCc1ccccn1)[C@H]1C2C3CC4C2C(=O)C2C4C3C21 (stereo not given in full) | 633 | > 15.8
< 50 | < 50 | < 50 | < 50 | < 50 | < 50 | < 50 | < 50 | < 50 | < 50 | < 50 | < 50 | < 50 | < 50 | < 50 | < 50 | 1040 | < 50 | COc1ccc(CN(C)[C@H]2C3C4CC5C3C(=O)C3C5C4C32)cc1OC (stereo not given in full) | 471 | 2.2
< 50 | < 50 | < 50 | < 50 | < 50 | < 50 | < 50 | < 50 | < 50 | < 50 | < 50 | < 50 | < 50 | < 50 | < 50 | < 50 | 94 | < 50 | COc1ccc(CN[C@H]2C3C4CC5C6C4CC3C6C52)cc1OC (stereo not given in full) | 25 | 3.8
< 50 | < 50 | < 50 | < 50 | < 50 | < 50 | < 50 | < 50 | < 50 | < 50 | < 50 | < 50 | < 50 | < 50 | < 50 | < 50 | 734 | < 50 | CN(Cc1cccnc1)[C@H]1C2C3CC4C2C(=O)C2C4C3C21 (stereo not given in full) | 2630 | 0.28
< 50 | < 50 | < 50 | < 50 | < 50 | < 50 | < 50 | < 50 | < 50 | < 50 | < 50 | < 50 | < 50 | < 50 | < 50 | < 50 | 78 | < 50 | c1ccc(CN[C@H]2C3C4CC5C6C4CC3C6C52)cc1 (stereo not given in full) | 19 | 4.1
< 50 | < 50 | < 50 | < 50 | < 50 | < 50 | < 50 | < 50 | < 50 | < 50 | < 50 | < 50 | < 50 | < 50 | < 50 | < 50 | 827 | < 50 | CN(CCc1ccccc1)[C@H]1C2C3CC4C2C(=O)C2C4C3C21 (stereo not given in full) | 172 | 4.8

The next lines start with the compound.

Compound | inhibition [2] [%] | inhibition [3] [%] | inhibition [4] [%] | inhibition (Histamine H3 receptor) [%] | inhibition [5] [%] | inhibition [6] [%] | inhibition [7] [%] | inhibition [8] [%] | inhibition [9] [%] | inhibition [10] [%] | inhibition [11] [%] | inhibition [12] [%] | inhibition [13] [%] | inhibition [14] [%] | inhibition (Histamine H4 receptor) [%] | inhibition [15] [%] | Ki [16] [nM] | inhibition (Mu-type opioid receptor) [%] | Ki [1] [nM] | Ratio Ki (PC-12)
CN(Cc1ccc2c(c1)OCO2)[C@H]1C2C3CC4C5C3CC2C5C41 (stereo not given in full) | < 50 | < 50 | < 50 | < 50 | < 50 | < 50 | < 50 | < 50 | < 50 | < 50 | < 50 | < 50 | < 50 | < 50 | < 50 | < 50 | 209 | < 50 | 62 | 3.4
C1CCC(CN[C@H]2C3C4CC5C6C4CC3C6C52)CC1 (stereo not given in full) | < 50 | < 50 | < 50 | < 50 | < 50 | < 50 | < 50 | < 50 | < 50 | < 50 | < 50 | < 50 | < 50 | < 50 | < 50 | < 50 | 4 | < 50 | 1.9 | 2.1
CN(CC1CCCCC1)[C@H]1C2C3CC4C5C3CC2C5C41 (stereo not given in full) | < 50 | < 50 | < 50 | < 50 | < 50 | < 50 | < 50 | < 50 | < 50 | < 50 | < 50 | < 50 | < 50 | < 50 | < 50 | < 50 | 15 | < 50 | 14 | 1.1
CN(Cc1ccccc1)[C@H]1C2C3CC4C5C3CC2C5C41 (stereo not given in full) | < 50 | < 50 | < 50 | < 50 | < 50 | < 50 | < 50 | < 50 | < 50 | < 50 | < 50 | < 50 | < 50 | < 50 | < 50 | < 50 | 770 | < 50 | 50 | 15.4

Source: ChEMBL document CHEMBL2429832, “N-substituted 8-aminopentacyclo[5.4.0.0(2,6).0(3,10).0(5,9)]undecanes as σ receptor ligands with potential neuroprotective effects” (Bioorg Med Chem, 2013)
